According to US12544400B2, “Treatment of myopic progression” (University of Utah Research Foundation, priority 2018, dated 2026):

Key:
lysyl oxidase (LOX) = test: peroxidase-coupled fluorometric lysyl oxidase activity assay on conditioned medium of cultured corneal stroma cells; type: cell-based; conditions: 0.0016 mg/mL CuSO4 in BSS vs BSS control, fibroblast cells from normal corneas and corneas having low corneal stiffness, FIGS. 1A-1B
Procedure: Cultured corneal stroma cells from normal corneas and corneas having low corneal stiffness (n=3 each) in 10% FBS DMEM were either exposed to BSS control or 0.0016 mg/mL CuSO4 in balanced salt solution (BSS) then filtered through a 0.25 μm filter. Conditioned culture medium underwent a peroxidase-coupled fluorometric activity assay for lysyl oxidase (LOX).
Tissues were collected under sterile techniques in an operative setting. Tissue samples were stored in a 10 cm tissue culture dish in an Optisol solution. Corneal tissue was suspended in 15% fetal bovine serum (FBS) DMEM/F12 with penicillin/streptomycin. Epithelium and Descemet's membrane were removed mechanically under a stereo microscope. The samples were further cut into small pieces by a surgical scissor, and added to 1 mg/mL collagenase; 10 mL per cornea was used. The sample pieces were plated to a 10 cm tissue culture dish and placed in a tissue culture incubator at 37° C. with 5% CO2. After 5 days, the cells were harvested and plated in 10% FBS DMEM without phenol red.
LOX enzyme activity in culture medium was measured using a peroxidase-coupled fluorometric assay using Amplex red. […] The fluorescence of oxidized Amplex red was recorded every 10 minutes using fluorescence plate reader. After subtracting the background fluorescence, the fluorescence intensity was plotted against the incubation time (FIGS. 1A and 1B).

rabbit corneas = test: cornea radial strain / corneal biomechanics, rabbit corneas after eye drop treatment; type: in vivo; conditions: CuSO4 pentahydrate 0.0025 mg/ml once or three times per day; compared with laser cross-linking; FIG. 3
Procedure: (§1) Cornea radial strain measurements were performed on human cadaver corneas and on rabbit corneas. Human cadaver corneas (n=2 pairs) were cultured as previously mentioned in Example 1. The treated group was immersed in 0.0016 mg/ml CuSO4 for 2 weeks. The samples also contained a small portion of sclera at both ends. Mineral oil was applied on the surface of the sclera-cornea-sclera strip to minimize tissue dehydration. Rabbit corneas were divided into 4 groups. Two groups were treatment groups receiving either CuSO4 pentahydrate 0.0025 mg/ml three times per day or CuSO4 pentahydrate 0.0025 mg/ml once per day. Two groups served as control receiving only BSS.
(§2) The sample was coupled between a motor and a transducer that applied a controlled pressure from 5-30 mmHg and measured the resultant radial strain. The sample length between the two gripping jaws was approximately 10 mm. Sample geometric information, including width and thickness, was input into the Rheometrics System Analyzer (RSA) control panel. Sample thickness was measured by an ultrasound pachymeter (DGH 550 Pa-chette2; DGH Technology, Exton, PA).

[1] = tested on: New Zealand white rabbits; test: rabbit corneal topography (diopter measurements); type: in vivo; conditions: 0.0025 mg/ml once or three times per day or 0.025 mg/ml once per day, 5 weeks; controls no drops, BSS, artificial tears; FIG. 4
Procedure: Copper sulfate pentahydrate (CuSO4) at 0.0025 mg/ml was administered to New Zealand white rabbits at a dose of once per day and three times per day. Additionally, a high concentration sample of 0.025 mg/ml CuSO4 pentahydrate was administered to New Zealand with rabbits once per day during the treatment period. Three different controls were administered either no drops, BSS, or artificial tears. Each of the 6 groups included 6 test subjects each. Topography images were taken before treatment and weekly for 5 weeks. Diopter measurements were the mean K values and at 3 mm. These values were compared to diopter measurements in laser cross-linked corneas after 1 month and 1 year.

human cadaver corneas = test: cornea radial strain measurement, human cadaver corneas immersed in CuSO4
Procedure: as §1, §2

rabbits = test: safety of copper eye drops in vivo (ERG, slit-lamp, AS-OCT, histology); parameters: species or system rabbit; conditions: 0.0025 mg/ml TID or QD, 6 weeks
Procedure: Copper sulfate (CuSO4) pentahydrate solution was prepared at a concentration of 0.0025 mg/ml and administered three times a day (TID) or once a day (QD) to rabbits. An anterior segment evaluation was performed with slit-lamp biomicroscopy and Heidelberg Spectralis anterior segment optical coherence tomography (AS-OCT). Two rabbits (n=4 eyes) were sacrificed at each of day 1, week 1, week 4, and week 6 for copper levels in eye tissues and compared to control (no drops) rabbits. Aqueous humor, vitreous, retina, cornea, lens, and blood samples were analyzed for copper ions using inductively coupled plasma mass spectrometry (ICP-MS).
Rabbits (n=2) were sacrificed after 42 days by intravenous injection of 0.3 ml/kg euthanasia solution and the eyes were enucleated for histological evaluations and reading for signs of inflammation, tissue damage, scarring and fibrosis. The anterior section of the eyes were fixed in 10% formaldehyde-glutaraldehyde solution, dehydrated in a graded series of alcohol, embedded in paraffin, and sectioned with a microtome. The sections were stained with appropriate staining (hematoxylin and eosin and Masson Trichrome).

albino guinea pigs = tested on: albino guinea pigs
Procedure: Progressive myopia occurs more often in albino guinea pigs than in their wild type counterparts, even without imposing diffusers or lenses. Guinea pigs were subjected to a cycle of 12 hours of light/12 hours of dark. An eye drop including 0.0025 mg/ml CuSO4 pentahydrate in phosphate buffered ophthalmic solution was administered at approximately 2 weeks of age to the right eyes (OD) of albino guinea pigs (n=4). Left eyes (OS) received control drops (ophthalmic vehicle only). Eye drops (approximately 30 μL) were administered 3 times per day for approximately 6 weeks. Refractive error was measured by a pediatric ophthalmologist prior to treatment on day 1 and at subsequent timepoints according to the schedule depicted in FIGS. 7A-7B. […] FIGS. 7A-7B present average refractive error measurements for the test subjects in each eye with error bars and linear fit, respectively.

New Zealand white rabbit [2] = conditions: 0.0025 mg/ml 3 times per day for 6 weeks vs vehicle and control groups; FIG. 8
Procedure: New Zealand white rabbit right eyes were separated (n=6 per group) into treatment group (0.0025 mg/ml CuSO4 pentahydrate in phosphate buffered ophthalmic solution), vehicle group (phosphate buffered ophthalmic solution), and control group (no drops). Drops were administered 3 times per day for 6 weeks in treatment eyes. Animals were followed weekly for TOP measurements, topography and ocular response analyzer. At the end of the 6 weeks, rabbits were sacrificed and eye was immediately dissected within 30 minutes of sacrifice. Recovered corneas weight was recorded. Samples were reduced with NaBH4 at room temperature then washed with water twice, dried, and hydrolyzed with 6N HCl in vacuo for 18 hours at 110° C. Post hydrolysis, cross-link enrichment was carried out by using a cellulose mini-column method. LNL was measured by mass spectroscopy.

New Zealand white rabbit [3] = conditions: 0.0016 mg/ml 3x/day for 24 days
Procedure: New Zealand white rabbit right eyes (n=3) were treated with 0.0016 mg/ml CuSO4 3×/day for 24 days. Left eyes were treated with BSS (TID) for 24 days and served as controls. Corneal-OCT pictures were taken at baseline and at day 24.

[4] = 0.0016 mg/ml CuSO4 for 2 weeks vs untreated, FIG. 2

| SMILES | LOX enzyme activity (lysyl oxidase (LOX)) | LOX enzyme activity (lysyl oxidase (LOX); listed as copper) | corneal biomechanics (rabbit corneas) | diopter measurements (mean K and at 3 mm), change vs control groups [1] | corneal strength (human cadaver corneas; FIG. 2 legend) | toxicity in dissected eye tissues (rabbits) | histopathological analysis of dissected eyes (albino guinea pigs; 0.0025 mg/ml 3 times per day, approximately 6 weeks, data not shown) | myopic progression (average refractive error) in the treatment eye (albino guinea pigs; 0.0025 mg/ml eye drop 3 times per day for approximately 6 weeks, OD vs vehicle OS, FIGS. 7A-7B) | IOP measurements (albino guinea pigs; all eyes during the study, within normal limits, data not shown) | LNL crosslinking in corneas (New Zealand white rabbit [2]) | cornea epithelial layer by OCT / gross toxicity to the corneas (New Zealand white rabbit [3]) | slit-lamp examination (New Zealand white rabbit [3]) | central cornea flattening by OCT (New Zealand white rabbit [3]; right eyes n=3 vs BSS left eyes, FIGS. 6A-6F) | corneal stiffness (human cadaver corneas; [4]) | radial strain (human cadaver corneas; [4]) | average peak radial strain induced by ocular pulse, treated vs untreated corneas (human cadaver corneas; at 20 mmHg) | increase in corneal strength (human cadaver corneas; from peak radial strain at 20 mmHg, treated vs untreated) |
| --- | --- | --- | --- | --- | --- | --- | --- | --- | --- | --- | --- | --- | --- | --- | --- | --- | --- |
| [Cu] [Cu, copper] | increased | dramatically increased | improved | decreased | increased | no observed toxicity |  |  |  |  |  |  |  |  |  |  |  |
| O.O.O.O.O.O=S(=O)([O-])[O-].[Cu+2] [CuSO4 pentahydrate, copper (II) sulfate pentahydrate] |  |  | comparable to that seen with laser cross-linking |  |  |  | no observed toxicity | effective in reducing myopic progression | 15-25 mmHg | increased |  |  |  |  |  |  |  |
| O=S(=O)([O-])[O-].[Cu+2] [CuSO4, copper (II) sulfate] |  |  |  | greater decrease |  |  |  |  |  |  | no gross toxicity | no inflammation or opacification | cornea flattening in all 3 treatment eyes | marked increase | decrease | about 1.5 times lower | ~50% |
